This is an account of results in ChEMBL document CHEMBL3880421, “Indazole compounds and pharmaceutical compositions for inhibiting protein kinases, and methods for their use” (2003).

A short description of data set [1]: Terminal half life in B6 mouse at 50 mg/kg, po by UV-HPLC analysis. Format: ADME, organism-based. The conditions noted are these: in vivo; for half-life: B6, mouse, read-out: beta t1/2 (converted); for beta t1/2: mouse, BLD = below limit of detection.
Data set [2] in a line: Terminal half life in B6 mouse at 25 mg/kg, ip by UV-HPLC analysis. To be noted: in vivo, read-out: beta t1/2 (converted). It counts as ADME, organism-based.
Data set [3] in a line: Antiproliferative activity against VEGF-stimulated HUVEC cells assessed as reduction in cell viability at 10 nM preincubated for 1 hr followed by addition of VEGF measured after 72 hrs by MTT assay. It counts as functional. To be noted: Homo sapiens. For orientation: Tetrazolium dyes change colour on reduction, which living cells bring about.

In the case of `O=C(NC1CCC1)c1ccccc1Sc1ccc2c(/C=C/c3ccccn3)n[nH]c2c1`, the half-life is 294 min in data set [1] and 192 min in data set [2]. Take `O=C(Nc1cc(Nc2ccc3c(/C=C/c4ccccc4)n[nH]c3c2)ccc1F)c1ccccc1`: the half-life is 204 min in data set [1] and 1190 min in data set [2]. For `O=C(Nc1ccccc1)c1ccccc1Sc1ccc2c(/C=C/c3ccccn3)n[nH]c2c1` the same measures were 180 min and 72 min.

Consider `O=C(NCC1CC1)c1ccccc1Sc1ccc2c(/C=C/c3ccccn3)n[nH]c2c1`, for which the half-life is 60 min in data set [1] and 54 min in data set [2].

As for `CCNC(=O)c1ccccc1Sc1ccc2c(/C=C/c3ccccn3)n[nH]c2c1`, the half-life in data set [1] was 54 min; in data set [2] it was 192 min. `Cn1nc(C(C)(C)C)cc1C(=O)Nc1cccc(C(=O)c2ccc3c(/C=C/c4ccccn4)n[nH]c3c2)c1`: the half-life in data set [1] is 114 min; in data set [2], 192 min. For `Cc1cc(C(=O)Nc2cccc(C(=O)c3ccc4c(/C=C/c5ccccn5)n[nH]c4c3)c2)n[nH]1` the same measures were 42 min and 18 min. As to `Cc1ccc2cc(NC(=O)c3ccccc3Sc3ccc4c(/C=C/c5ccccn5)n[nH]c4c3)ccc2n1`, the half-life in data set [1] and in data set [2] was 180 min throughout.

As for `C#CCNC(=O)c1ccccc1Sc1ccc2c(/C=C/c3ccccn3)n[nH]c2c1`, the figures for the half-life in data set [1] and in data set [2] were 54 min and 84 min, respectively.

As for `O=C(Nc1cccc(Oc2ccc3c(/C=C/c4ccccn4)n[nH]c3c2)c1)c1ccccc1`, the half-life in data set [2] is 144 min. For `CC(C)NC(=O)c1ccccc1Sc1ccc2c(/C=C/c3ccccn3)n[nH]c2c1`, the half-life in data set [1] and in data set [2] was 48 min each time.

On to `O=C(Nc1cccc(Cl)c1)c1ccccc1Sc1ccc2c(/C=C/c3ccccn3)n[nH]c2c1`, for which the half-life in data set [1] was 54 min; in data set [2], 96 min. For `O=C(Nc1cccc(C(=O)c2ccc3c(-c4nc5ccccc5[nH]4)n[nH]c3c2)c1)c1ccccc1` the same measures were 180 min and 180 min. In the case of `Cn1cccc1C(=O)NNC(=O)c1ccccc1Sc1ccc2c(/C=C/c3ccccn3)n[nH]c2c1`, the results for the half-life in data set [1] and in data set [2] were 54 min and 108 min, respectively. In the same order, the values of `O=C(Nc1cccc(C(=O)c2ccc3c(/C=C/c4ccccn4)n[nH]c3c2)c1)c1ccccc1` are 120 min and 300 min. For `CC(=O)c1ccc(C(=O)Nc2cccc(C(=O)c3ccc4c(/C=C/c5ccccn5)n[nH]c4c3)c2)s1` the same measures were 96 min and 96 min. In the same order, the values of `O=C(NC1CC1)c1ccccc1Sc1ccc2c(/C=C/c3ccccn3)n[nH]c2c1` are 42 min and 60 min.

As for `CCn1nc(C)cc1C(=O)Nc1cc(C(=O)c2ccc3c(/C=C/c4ccccn4)n[nH]c3c2)ccc1C`, the half-life in data set [1] was 204 min; in data set [2], 240 min. With `O=C(NCC(F)(F)F)c1ccccc1Sc1ccc2c(/C=C/c3ccccn3)n[nH]c2c1`, the values for the half-life in data set [1] and in data set [2] were 42 min and 144 min, respectively. In the same order, the values of `O=C(Nc1nccs1)c1ccccc1Sc1ccc2c(/C=C/c3ccccn3)n[nH]c2c1` are 72 min and 72 min. For `O=C(c1cccc(NC(=O)c2ccccn2)c1)c1ccc2c(/C=C/c3ccccn3)n[nH]c2c1` the same measures were 54 min and 126 min. Turning to `CCOCCNC(=O)c1ccccc1Sc1ccc2c(/C=C/c3ccccn3)n[nH]c2c1`, the half-life in data set [2] was 108 min. With `O=C(Nc1cccc(C(=O)c2ccc3c(/C=N/n4cccc4)n[nH]c3c2)c1)c1ccccc1`, the results for the half-life in data set [1] and in data set [2] were 180 min and 120 min, respectively. For `O=C(NCc1ccccc1F)c1ccccc1Sc1ccc2c(/C=C/c3ccccn3)n[nH]c2c1` the same measures were 216 min and 228 min.

On to `C[C@@H]1C[C@H]1C(=O)Nc1cccc(C(=O)c2ccc3c(/C=C/c4ccccn4)n[nH]c3c2)c1` (racemic), for which the half-life in data set [1] is 42 min; in data set [2] it was 72 min.

In the case of `CCCNC(=O)c1ccccc1Sc1ccc2c(/C=C/c3ccccn3)n[nH]c2c1`, the figures for the half-life in data set [1] and in data set [2] were 54 min and 84 min, respectively. As for `O=C(c1cccc(NC(=O)c2ccccn2)c1)c1ccc2c(/C=C/c3ccccc3)n[nH]c2c1`, the half-life in data set [1] and in data set [2] was 132 min each time. As for `Cc1cc(C(=O)Nc2cccc(C(=O)c3ccc4c(/C=C/c5ccccn5)n[nH]c4c3)c2)on1`, the “beta t1/2” value in data set [1] was “Bld”. As to `Cc1ccc(C2(C(=O)Nc3cccc(Oc4ccc5c(/C=C/c6ccccc6)n[nH]c5c4)c3)CC2)cc1`, in data set [3], the inhibition (in general, the relative decrease from the control value, in per cent) at 0.01 µM was determined as 4%. Same read-out and setting: as for `CC(C)[C@@H](O)C(=O)Nc1cccc(Oc2ccc3c(/C=C/c4ccccc4)n[nH]c3c2)c1`, the figure is 32%. As for `CC(C)ONC(=O)c1ccccc1Sc1ccc2c(/C=C/c3ccccn3)n[nH]c2c1`, in data set [1], the half-life is 66 min. With `O=C(c1cccc(NC(=O)[C@H]2CCC[C@H]2O)c1)c1ccc2c(/C=C/c3ccccc3)n[nH]c2c1`, the inhibition at 0.01 µM in data set [3] came out at 39%. Same read-out and setting: then `O=C(Nc1cccc(Nc2ccc3c(/C=C/c4ccccc4)n[nH]c3c2)c1)C1CC2C=CC1CC2` (configuration not stated), with 6%; and `CN1CCC=C(C(=O)Nc2cccc(Nc3ccc4c(/C=C/c5ccccc5)n[nH]c4c3)c2)C1`, with 0%; and `COc1cccc(/C=C/C(=O)Nc2cccc(C(=O)c3ccc4c(/C=C/c5ccccc5)n[nH]c4c3)c2)c1`, with 35%.

With `CCNc1ccccc1C(=O)Nc1cccc(Nc2ccc3c(/C=C/c4ccccc4)n[nH]c3c2)c1`, the inhibition at 0.01 µM in data set [3] came to 71%. In the case of `O=C(Nc1cccc(Nc2ccc3c(/C=C/c4ccccc4)n[nH]c3c2)c1)c1cc(=O)cco1`, the inhibition at 0.01 µM in data set [3] was found to be 17%.

Turning to `CC1(C)OC(=O)CC1C(=O)Nc1cccc(Oc2ccc3c(/C=C/c4ccccc4)n[nH]c3c2)c1` (configuration not stated), the inhibition at 0.01 µM in data set [3] is 25%.

As to `C/C=C(\C)C(=O)Nc1cccc(Nc2ccc3c(/C=C/c4ccccc4)n[nH]c3c2)c1`, the inhibition at 0.01 µM in data set [3] was 98%. Regarding `CC(C)c1ccccc1C(=O)Nc1cccc(C(=O)c2ccc3c(/C=C/c4ccccc4)n[nH]c3c2)c1`, in data set [3], the inhibition at 0.01 µM was 51%. As for `O=C(Cc1ccccc1)C(=O)Nc1cccc(Oc2ccc3c(/C=C/c4ccccc4)n[nH]c3c2)c1`, the inhibition at 0.01 µM in data set [3] turned out to be 25%.

Consider `CC1(C)C(C(=O)Nc2cccc(C(=O)c3ccc4c(/C=C/c5ccccc5)n[nH]c4c3)c2)C1(C)C`, for which the inhibition at 0.01 µM in data set [3] is 51%.

Regarding `CC(C)(C)[C@@H](O)C(=O)Nc1cccc(Oc2ccc3c(/C=C/c4ccccc4)n[nH]c3c2)c1`, the inhibition at 0.01 µM in data set [3] amounted to 30%. For the compound `CCCN(CCC)CC(=O)Nc1cccc(Nc2ccc3c(/C=C/c4ccccc4)n[nH]c3c2)c1`, the inhibition at 0.01 µM in data set [3] worked out at 17%. The same measure, in the same setting: then `CN(C)C(=S)SCC(=O)Nc1cccc(Nc2ccc3c(/C=C/c4ccccc4)n[nH]c3c2)c1`, with 32%.

Take `O=C(Nc1cccc(C(=O)c2ccc3c(-c4nc5cccnc5[nH]4)n[nH]c3c2)c1)c1ccccc1`: the “beta t1/2” value in data set [1] is on record as “Bld”. `CCC(C(=O)Nc1cccc(Nc2ccc3c(/C=C/c4ccccc4)n[nH]c3c2)c1)c1ccccc1C` (configuration not stated): the inhibition at 0.01 µM in data set [3] was -3%. On the same count and under the same terms, as for `C[C@@]12C[C@H]3C[C@H]1C[C@@]3(C(=O)Nc1cccc(Oc3ccc4c(/C=C/c5ccccc5)n[nH]c4c3)c1)C2`, the figure is 30%; as for `CCNc1ccccc1C(=O)Nc1cccc(Oc2ccc3c(/C=C/c4ccccc4)n[nH]c3c2)c1`, 85%. As to `COc1cccc(/C=C/C(=O)Nc2cccc(Oc3ccc4c(/C=C/c5ccccc5)n[nH]c4c3)c2)c1`, the inhibition at 0.01 µM in data set [3] is 64%. For `CN1CSCCC1C(=O)Nc1cccc(C(=O)c2ccc3c(/C=C/c4ccccc4)n[nH]c3c2)c1` (configuration not stated), in data set [3], the inhibition at 0.01 µM came to 8%. For `O=C(Nc1cccc(Oc2ccc3c(/C=C/c4ccccc4)n[nH]c3c2)c1)C1CCCO1` (configuration not stated), the inhibition at 0.01 µM in data set [3] is 51%.

For the compound `CC(C)C(=O)Nc1cccc(Oc2ccc3c(/C=C/c4ccccc4)n[nH]c3c2)c1`, the inhibition at 0.01 µM in data set [3] stood at 57%. As for `Cc1cc(C(=O)Nc2cccc(C(=O)c3ccc4c(/C=C/c5ccccc5)n[nH]c4c3)c2)oc(=O)c1`, the inhibition at 0.01 µM in data set [3] was 64%. On to `COc1ccc(C#N)c(C(=O)Nc2cccc(Oc3ccc4c(/C=C/c5ccccc5)n[nH]c4c3)c2)c1`, for which the inhibition at 0.01 µM in data set [3] was 18%. With `O=C(CCC(=O)N1CCCC1)Nc1cccc(Nc2ccc3c(/C=C/c4ccccc4)n[nH]c3c2)c1`, the inhibition at 0.01 µM in data set [3] is -8%. The same measure, in the same setting: as for `C/C(=C\C(=O)Nc1cccc(Oc2ccc3c(/C=C/c4ccccc4)n[nH]c3c2)c1)c1ccccc1C`, the figure is 52%; as for `O=C(Cc1cccnc1)Nc1cccc(Nc2ccc3c(/C=C/c4ccccc4)n[nH]c3c2)c1`, 43%; as for `CCC(C(=O)Nc1cccc(C(=O)c2ccc3c(/C=C/c4ccccc4)n[nH]c3c2)c1)c1ccccc1C` (configuration not stated), 3%. Regarding `COc1cccc(CC(=O)Nc2cccc(Nc3ccc4c(/C=C/c5ccccc5)n[nH]c4c3)c2)c1`, the inhibition at 0.01 µM in data set [3] is 34%. The same measure, in the same setting: then `O=C1NCC(C(=O)Nc2cccc(C(=O)c3ccc4c(/C=C/c5ccccc5)n[nH]c4c3)c2)N1` (configuration not stated), with 21%; and `O=C(Nc1cccc(Nc2ccc3c(/C=C/c4ccccc4)n[nH]c3c2)c1)C1=C[C@@H](O)[C@@H](O)[C@H](O)C1`, with 6%; and `O=C(/C=C/C(=O)Nc1cccc(Nc2ccc3c(/C=C/c4ccccc4)n[nH]c3c2)c1)NCC1CC1`, with 13%. Still for that read-out and setting: as for `O=C(Nc1cccc(Oc2ccc3c(/C=C/c4ccccc4)n[nH]c3c2)c1)C1CC2C=CC1CC2` (configuration not stated), the figure is 13%.

As to `O=C(Cc1cc(F)cc(F)c1)Nc1cccc(C(=O)c2ccc3c(/C=C/c4ccccc4)n[nH]c3c2)c1`, in data set [3], the inhibition at 0.01 µM is 87%.

Turning to `CC(C)CC(=O)C(=O)Nc1cccc(Oc2ccc3c(/C=C/c4ccccc4)n[nH]c3c2)c1`, in data set [3], the inhibition at 0.01 µM turned out to be 64%. In the case of `CC1(C)OC(=O)[C@H](CC(=O)Nc2cccc(C(=O)c3ccc4c(/C=C/c5ccccc5)n[nH]c4c3)c2)O1`, the inhibition at 0.01 µM in data set [3] came to 19%.
